Measured values as given in US7098216B2, “Thiazolopyrimidines useful as TNFα inhibitors” (The Regents of the University of California, priority 1999, dated 2006).
Like-named read-outs stand apart in the source and are kept apart here.

Assays:
Jurkat cell line = assay: Jurkat cell growth, MTT assay; type: cell-based, human; conditions: concentration below 50 μM, 72 h, MTT (FIG. 3)
Protocol: In this experiment, cells of the continuous human lymphoblastoid Jurkat cell line were suspended at 1×10^5/ml in complete medium containing various amounts of 8a and 8b dissolved in DMSO. Seventy-two hours later the cell density was assessed using the MTT assay, which measures the reduction of a tetrazolium dye. The cell densities were compared to control cultures lacking any additional drugs.

TNFα in the plasma = assay: Time course of TNFα inhibition after oral 8a in LPS-injected mice; type: in vivo, ICR mice; conditions: 100 mg/kg by gavage, LPS 24 hours later (FIG. 6)
Protocol: The purpose of these experiments was to determine how long after administration of compound 8a by gavage could its inhibitory effects on LPS-induced TNFα production be detected. Accordingly, all the ICR in this instance were given 8a at a dosage of 100 mg/kg by gavage. Then at 1, 4, 10, and 24 hours later, each animal received 1 μg/ml IP LPS, and two hours later (i.e., at 3, 6, 12, and 26 hours), blood was removed for TNFα ELISA.

[1] = tested on: TNFα plasma concentration; assay: Oral 8a dose response on LPS-induced plasma TNFα in mice; type: in vivo, ICR mice
Protocol: ICR mice were dosed orally at 25, 50 and 100 mg/kg of 8a in cyclodextrin, prepared as in Example 7. After 1 hr., each mouse was injected with E. coli LPS (1 μg/mouse). Two hours later, 250 μl samples of blood were obtained by retro-orbital bleeding without anesthetization. The blood was heparinized, centrifuged for 10 min. at 10 K rpm (4° C.) and TNFα determined by ELISA. […] The two bars at the top of the figure show the baseline levels of TNFα in the mouse plasma, which were undetectable, and the effects of 8a administered alone, which were negligible.

[2] = tested on: TNFα production in human monocytes; assay: Inhibition of LPS-induced TNFα production in human monocytes (ELISA); type: cell-based; conditions: Monocyte
Protocol: (§1) Peripheral blood mononuclear cells were isolated from normal human blood on Hypaque-Ficoll density gradients. 100 μl aliquots of monocytes were placed onto 96 well microtiter plates at a density of […] in RPMI-1640 medium containing 10% autologous plasma. After incubation for 24 hrs., various concentrations of the test compound in DMSO were added to the plated cells in a volume of 100 μl and incubated for 1 hr. After incubation, […] of LPS was added to each well.
(§2) Eighteen hours after exposure of the plated cells to LPS, 100 μl of medium was collected from each well and assayed (by ELISA, R&D Systems) for release of IL-1 and TNFα, using recombinant human TNF as a standard (n=5). The sensitivity of the assay ranged from 10–100 pg/ml.

adjuvant arthritis = assay: Adjuvant arthritis in Lewis rats; type: in vivo; conditions: 100 mg/kg by gavage daily
Protocol: Since TNFα antagonists have shown considerable value in the treatment of rheumatoid arthritis, compound 8a was evaluated in an animal model that is TNFα dependent. Adjuvant arthritis is an acute inflammatory disease induced in certain rat strains by the administration of heat-killed mycobacteria dispersed in […]. The disease is manifest by severe joint swelling, mainly of the ankles and feet.
Two groups of seven Lewis rats each were immunized intradermally with 5 mg of heat-killed mycobacterium tuberculosis emulsified in incomplete Freund's adjuvant. One day later, one group of animals (N=7) received 100 mg/kg of 8a by gavage. Another group of animals received no treatment. The oral dosing was continued every day up to day 30. […] The mean arthritis score can vary from 0 to 4 for each limb, yielding a maximum score of 16. Note that the untreated animals (group 1) achieved a mean arthritis score of 10 on day 18. In contrast, the treated animals reach a mean arthritis score of 5, for 50% inhibition.

[3] = Acute toxicity testing in ICR mice, IP; type: in vivo; conditions: five daily IP injections at 100 mg/kg, 30 days of observation
Protocol: ICR mice (ca. 20 g) were injected IP for 5 days with 50 mg/kg, and 100 mg/kg of each of 8a and 8b dispersed in aqueous hydroxypropyl β-cyclodextrin (50% w/v).

[4] = tested on: IL-1β production by human monocytes; assay: Inhibition of LPS-induced IL-1β production in human monocytes (ELISA); type: cell-based; conditions: Monocyte; human monocytes stimulated with LPS (FIG. 2); read-out: 50% inhibitory dose, IL-1 production
Protocol: as §1, §2
FIG. 2 summarizes the effects of 8b and 8a on the production of IL-1β by human monocytes stimulated with LPS, under the same conditions used for the TNFα study.

[5] = human monocytes, LPS, 18 h, ELISA (FIG. 1), read-out: IC50, TNFα production

Structure (SMILES) | growth inhibitory activity on Jurkat cells (Jurkat cell line) | accumulation of TNFα in plasma of LPS-injected mice (TNFα in the plasma) | effect on TNFα plasma concentration ([1]; 25 mg/kg oral, LPS 1 h later, blood 2 h after LPS (FIG. 5)) | effect on TNFα plasma concentration ([1]; 50 mg/kg oral, compared with 25 mg/kg (FIG. 5)) | effect of 8a administered alone on plasma TNFα ([1]; without LPS (FIG. 5)) | IC50 ([2]; Homo sapiens, 18 h, read-out: IC50, TNFα production) [µM] | IC50 ([2]; Homo sapiens, read-out: TNF inhib. (IC50)) [µM] | mean arthritis score (adjuvant arthritis; maximum score 16, untreated 10 on day 18 (FIG. 7)) | inhibition at 100 mg/kg (adjuvant arthritis; Rattus norvegicus, po, versus untreated, read-out: inhibition of arthritis score) [%] | weight change or lethargy [3] | IC50 [4] [µM] | IC50 [2, 5] [µM]
CCOC(=O)CCCn1c(=O)c2sc(N)nc2n(C)c1=O [8a, Ethyl 4-[2-Amino-4-methyl-5,7-dioxothiazolo [4,5-d]pyrimidin-6-yl]-butanoate] | neither 8b nor 8a had significant growth inhibitory activity | completely inhibited | significant inhibitory effect | greater | negligible | 0.676 | 0.676 | 5 | 50 | no weight change or detectable lethargy | 1 to 3 | –
Fc1ccc(-c2ncn(CCCN3CCOCC3)c2-c2ccncc2)cc1 [SB-210313, reference compound] | – | – | – | – | – | – | – | – | – | – | – | 1.15
COc1ccc(C2CNC(=O)C2)cc1OC1CCCC1 (stereo not shown) [rolipram, reference compound] | – | – | – | – | – | – | – | – | – | – | – | 2.5
